This note sets out measurements from US5246935A, “Piperazinyl derivatives and methods of treating central nervous system ailments relating to the 5-HT2 receptor system” (Novo Nordisk A/S, priority 1990, dated 1993).

In one test the target is Dopamine D2 receptor (Rattus norvegicus, UniProt P61169). The test is described as follows: In-Vitro Inhibition of Dopamine D2 Receptor Binding (3H-Spiroperidol). Set-up: species or system rat (male Wistar). The conditions noted are these: 3H-Spiroperidol 0.05 nM, rat striatum, 37° C., 20 min. On the procedure:
In-Vitro Inhibition of Dopamine D2 Receptor Binding,
Radioactive-labelled ligand ^3 H-Spiroperidol is incubated with isolated cell-membrane fragments at 37° C. for a given period of time. Following completed incubation, the incubate is filtered through GF/B filters which are rinsed following filtration to remove unspecifically adhered radioactivity. As opposed to low- molecular compounds, membrane fragments are not rinsed through the filters, the radioactivity bound to the filters is indicative of the amount of ligand bound specifically as well as nonspecifically to the membranes.
The procedure is performed in ice bath. Polytron kinematica is rinsed with milli-Q-H2 O before and after use. Male Wistar rats, 150-200 g are decapitated, striatum is removed quickly and weighed (approx. 50 mg). Striatum is transferred to a centrifuging vial containing 10 ml ice-cold D2 buffer. Homogenization is performed applying polytron kinematica (homogenizer) setting 6 for 20 sec. The homogenizer is rinsed with 10 ml D2 buffer in another centrifuging vial. The 10 ml rinsing buffer is added to the tissue vial. Centrifugation at 18,000 rpm for 10 min. at 4° C. Final pellet is transferred to 1,000×vol. of same buffer. (Ex. 50 mg striatum in 50 ml D2 buffer). Can be stored at 0° C. for at least 4 hours. Note that the tissue must homogeneous (uniform) before use. If not, brief homogenization is performed.
2,500 μl tissue (homogeneous)
25 μl ^3 H-Spiroperidol (0.05 nM)
25 μl test substance/H2 O/blind (Domperidone 0.2 μM)
Incubation for 20 min. at 37° C.-10 min. on ice bath.
10 ml ice-cold 0.9% NaCl is added to the tubes and filtered through GF/B filters (use gloves). This procedure is repeated. The filters are placed in counting vials and 4 ml opti-flour is added (perform in fume cupboard, use gloves). Counting is performed at window 0-19 of the beta-counter (Pachard). Note that receptor box and lid are rinsed thoroughly in H2 O after use to avoid contamination. Further, the analytical site is cleaned carefully every day after use.
Dissolved in H2 O, EtOH, MeOH or DMSO and further diluted in H2 O. The D2 binding will stand concentrations of up to approx. 20% of these solvents without affecting the binding. Most stock solutions are stable at 4° C., attention is, however, paid to any precipitation, change in colour etc. Test-substance dilutions are always made fresh every day. When weighing out test substances, it is attempted to weigh out approx. 1 mg of substance. Less than 0.8 mg must never be weighed out and only infrequently more than 2 mg (for economy reasons), dependent, however, on conc./assay.

A further test addresses T1, 5HT2 receptor (Rattus norvegicus, UniProt P14842).
T1 construct: incubated with isolated cell-membrane fragments; from tissue; host or cells: frontal cortex of male Wistar rats (membranes)
The test is described as follows: In Vitro Inhibition of 5HT2-Receptor Binding (3H-Ketanserine). Set-up: species or system rat (male Wistar). The conditions noted are these: 3H-Ketanserine 0.4 nM, rat frontal cortex, 37° C., 15 min. On the procedure:
In Vitro Inhibition of 5HT2 -Receptor Binding
Radioactive-labelled ligand ^3 H-Ketanserine is incubated with isolated cell-membrane fragments at 37° C. for a given period of time. Following completed incubation, the incubate is filtered through GF/B filters which are rinsed after filtration to remove unspecifically adhered radioactivity. As opposed to low-molecular compounds, membrane fragments are not rinsed through the filters, the radioactivity bound to the filters indicates the amount of ligand bound specifically as well as non-specifically to the membranes.
The preparation is made in ice bath. Polytron kinematica is rinsed with milli-Q-H2 O before and after use. Male Wistar rats, 150-200 g are decapitated. Frontal cortex is removed quickly and weighed (approx. 200 mg). Frontal cortex is added to centrifuging vial containing 10 ml ice-cold D2 buffer. Homogenization applying polytron kinematica (homogenizer) setting 6 for 20 sec. The homogenizer is rinsed with 10 ml D2 buffer in another centrifuging vial. The 10 ml rinsing buffer is added to the tissue vial. Centrifuged at 18,000 rpm for 10 min. at 4° C. Final pellet is transferred to 125×vol. of same buffer. (Ex. 200 mg in 25 ml D2 buffer). Can be stored for approx. 30 min. at 0° C.
25 μl ^3 H-Ketanserine (0.4 nM)
25 μl test substance/H2 O/blind cyproheptadine (2 μM)
Incubation for 15 min. at 37° C.
10 ml ice-cold 0.9% NaCl is added to the tubes. Filtration is performed through GF/B filters (use gloves). This procedure is repeated. Filters are placed in counting vials, and 4 ml opti- flour is added (prepare in fume cupboard, use gloves). Counting at window 0-19 of the beta-counter (Pachard). Note that receptor box and lid are rinsed thoroughly in H2 O after use to avoid contamination. Further the analytical site is cleaned carefully every day.
Dissolved in H2 O, EtOH, MeOH or DMSO and further diluted in H2 O. The 5HT2 binding will stand concentrations of up to approx. 5% of these solvents without affecting the binding. Most stock solutions are stable at 4° C. Attention should, however, be paid to any precipitation, change in colour etc. Test-substance dilutions are always made fresh every day. When weighing out test substance, it is attempted to weigh out approx. 1 mg of substance. Less than 0.8 mg must never be weighed out and only infrequently more than 2 mg (for economy reasons) dependent, however, on conc./assay.

The structures appear in SMILES notation. Structures can show the parent of a compound that is named as a salt.

Dopamine D2 receptor, sequence (P61169 whole entry): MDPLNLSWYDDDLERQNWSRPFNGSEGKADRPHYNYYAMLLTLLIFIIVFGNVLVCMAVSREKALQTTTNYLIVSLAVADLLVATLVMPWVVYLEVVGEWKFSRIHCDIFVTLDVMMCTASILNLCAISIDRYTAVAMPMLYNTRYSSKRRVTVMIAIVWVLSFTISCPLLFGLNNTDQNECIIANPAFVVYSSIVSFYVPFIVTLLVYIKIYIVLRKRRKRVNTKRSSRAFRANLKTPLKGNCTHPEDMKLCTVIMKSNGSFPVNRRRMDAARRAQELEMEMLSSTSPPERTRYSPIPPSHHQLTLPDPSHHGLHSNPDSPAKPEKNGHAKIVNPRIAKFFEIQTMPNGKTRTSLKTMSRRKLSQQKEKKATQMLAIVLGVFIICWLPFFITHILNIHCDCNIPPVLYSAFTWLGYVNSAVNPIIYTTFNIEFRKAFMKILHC
T1 sequence (P14842 whole entry, the tested form may be a part): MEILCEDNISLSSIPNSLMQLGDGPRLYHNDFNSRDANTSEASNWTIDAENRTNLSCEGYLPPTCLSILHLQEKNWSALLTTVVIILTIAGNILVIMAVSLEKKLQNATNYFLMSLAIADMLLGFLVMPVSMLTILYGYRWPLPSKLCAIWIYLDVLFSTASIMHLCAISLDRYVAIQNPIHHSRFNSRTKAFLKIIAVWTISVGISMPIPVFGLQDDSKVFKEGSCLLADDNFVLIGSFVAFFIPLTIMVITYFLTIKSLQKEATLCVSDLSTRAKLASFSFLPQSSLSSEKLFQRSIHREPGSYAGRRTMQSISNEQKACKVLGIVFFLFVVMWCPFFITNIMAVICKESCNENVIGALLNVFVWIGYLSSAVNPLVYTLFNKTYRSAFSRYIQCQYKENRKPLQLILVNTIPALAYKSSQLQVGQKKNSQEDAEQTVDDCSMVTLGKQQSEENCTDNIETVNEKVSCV

For `COc1ccc2cccc(N3CCN(CCCOC(=O)Nc4ccc5c(c4)OCO5)CC3)c2c1` [Example 34, 1-(7-Methoxy-1-naphthyl)-4-[3-(3,4-methylenedioxyphenylcarbamoyloxy)propyl]piperazine, HCl], the values for the IC50 on Dopamine D2 receptor and at 5HT2 receptor were 4.3 nM and 13 nM, respectively.
The corresponding values for `COc1cc(NC(=O)OCCCN2CCN(c3ccc(F)cc3)CC2)cc(OC)c1OC` [Example 8, 4-(4-Fluorophenyl)-1-[3-(3,4,5-trimethoxyphenylcarbamoyloxy)propyl]piperazine, hydrochloride] are 720 nM and 10 nM.
As for `O=C(Nc1ccc2ncsc2c1)OCCCN1CCN(c2ccc(Cl)cc2)CC1` [Example 19, 4-(4-Chlorophenyl)-1-[3-(6-benzothiazolylcarbamoyloxy)propyl]piperazine, hydrochloride], the IC50 (usually the concentration that inhibits the measured activity by half) at Dopamine D2 receptor was 150 nM; on 5HT2 receptor, 22 nM.
For `COc1cc(NC(=O)OCCCN2CCN(c3ccccc3Cl)CC2)cc(OC)c1OC.Cl` [Example 3, 4-(2-Chlorophenyl)-1-[3-(3,4,5-trimethoxyphenylcarbamoyloxy)propyl]piperazine, hydrochloride], the results for the IC50 on Dopamine D2 receptor and at 5HT2 receptor were 120 nM and 7.5 nM, respectively.
